# Reference: patent JP2012067022A, “ホスホマイシンを有効成分とする魚類のエドワジエラ症治療剤” (Meiji Seika Kaisha Ltd, priority 2010, dated 2012)
# Legend:
# [1] = system: Edwardsiella tarda (エドワジエラ・タルダ); experiment: Test Example 1: in vitro antibacterial activity (MIC, Japanese Society of Chemotherapy method); format: cell-based; settings: oxytetracycline hydrochloride-resistant strains; result in words
# [2] = system: Edwardsiella tarda E08-18 strain (エドワジエラ・タルダ E08−18株); experiment: Test Example 2: artificial infection treatment test (1) in red sea bream; format: in vivo; settings: 40 mg (potency)/kg oral in feed, 6 days
# [3] = system: Edwardsiella tarda E08-18 strain (エドワジエラ・タルダ E08−18株); experiment: Test Example 3: artificial infection treatment test (2) in red sea bream; format: in vivo; settings: for mortality rate: red sea bream juveniles (27 g), 4.6×10^6 CFU/mL per fish i.p., to day 14 after infection, untreated control 95%
smiles,measurement,setting,value
C[C@@H]1O[C@@H]1P(=O)(O)O [ホスホマイシン],antibacterial activity,[1],強い抗菌活性を示す
same,recovery of feeding activity,"[2]; red sea bream juveniles, after bacterial inoculation",摂餌活性の回復が早まる
same,recovery of feeding activity,"[3]; red sea bream juveniles, 40 mg (potency)/kg oral in feed, 6 days, compared with oxytetracycline hydrochloride and untreated groups",塩酸オキシテトラサイクリンや無投薬の群よりも摂餌活性の回復が早まる
"C[C@@H]1O[C@@H]1P(=O)(O)O [ホスホマイシン・カルシウム, カルシウム塩]",mortality rate,"[2]; red sea bream juveniles (29 g), 3.6×10^6 CFU/mL per fish i.p., to day 14 after infection, untreated control 95%",10%
same,mortality rate,"[3]; 40 mg (potency)/kg oral in feed, 6 days",25%
CN(C)[C@@H]1C(=O)C(C(N)=O)=C(O)[C@@]2(O)C(=O)C3=C(O)c4c(O)cccc4[C@@](C)(O)[C@H]3[C@H](O)[C@@H]12.Cl [塩酸オキシテトラサイクリン],mortality rate,"[3]; 50 mg (potency)/kg oral in feed, 7 days",100%
